Results from PubChem BioAssay (NCI).
Values joined by “and” are separate entries in the source; they are usually repeats but may differ in a detail not shown here. Identical values can stand only once.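 Cultured in 96-well plates, cells were exposed to test compound for 48 hours across five concentrations. Here, GI50 denotes the concentration required for 50% inhibition of growth. TGI is the concentration that stops growth completely.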

Key:
Assay in all cases: growth of human tumour cells (NCI), 48 h
[1] = system: HCT-15 colon
[2] = system: NCI-H460 lung
[3] = system: OVCAR-4 ovarian
[4] = system: OVCAR-5 ovarian
[5] = system: PC-3 prostate
[6] = system: SK-OV-3 ovarian
[7] = system: T-47D breast
[8] = system: UACC-62 melanoma

CC(SCc1ccccc1)C(=O)O (centres undefined)
TGI [1]: > 100 µM
TGI [2]: > 100 µM
TGI [3]: > 100 µM
TGI [4]: > 100 µM
TGI [5]: > 100 µM
TGI [6]: > 100 µM
TGI [7]: > 100 µM
TGI [8]: > 100 µM

COc1ccc(S(=O)(=O)N(C(C)=O)c2ccccc2/C=C/c2cc[n+]([O-])cc2)cc1
GI50 [1]: 0.742 µM
TGI [1]: > 10 µM
GI50 [2]: 412 nM
TGI [2]: > 10 µM
GI50 [3]: > 6.79 µM
TGI [3]: > 10 µM
GI50 [4]: 3.26 µM
TGI [4]: > 10 µM
GI50 [5]: 688 nM
TGI [5]: > 10 µM
GI50 [6]: 1050 nM
TGI [6]: > 10 µM
GI50 [7]: 3.84 µM
TGI [7]: > 10 µM
GI50 [8]: 457 nM
TGI [8]: > 10 µM

CNC(=O)c1cncc(/C=C/c2ccccc2Cl)c1
GI50 [1]: > 25 µM
TGI [1]: > 25 µM
GI50 [2]: > 25000 nM
TGI [2]: > 25 µM
GI50 [3]: > 25 µM
TGI [3]: > 25 µM
GI50 [4]: > 25 µM
TGI [4]: > 25 µM
GI50 [5]: > 25000 nM
TGI [5]: > 25 µM
GI50 [6]: > 25000 nM
TGI [6]: > 25 µM
GI50 [7]: > 23.6 µM
TGI [7]: > 25 µM
GI50 [8]: > 25000 nM
TGI [8]: > 25 µM

Nc1ccc(/C=C/c2ccc3cccnc3c2)cc1
TGI [1]: > 100 µM
TGI [2]: > 100 µM
TGI [4]: > 100 µM
TGI [5]: > 100 µM
TGI [6]: > 100 µM
TGI [7]: > 100 µM
TGI [8]: > 100 µM

C=C1C(=O)O[C@H]2C[C@@H]1C(=O)CC(C)CCCC(C)=CCC[C@@]2(C)O (some centres undefined)
TGI [1]: > 25 µM
TGI [2]: > 25 µM
TGI [3]: > 25 µM
TGI [4]: > 25 µM
TGI [5]: > 25 µM
TGI [6]: > 25 µM
TGI [7]: > 25 µM
TGI [8]: > 25 µM

CO/N=C(\COc1ccc2oc(-c3ccccc3)cc(=O)c2c1)c1ccc(F)cc1
GI50 [1]: 40.2 µM
TGI [1]: > 100 µM
GI50 [3]: 22.3 µM
TGI [3]: 55.8 µM
GI50 [4]: 17.5 µM
TGI [4]: 39.1 µM
GI50 [5]: 22600 nM
TGI [5]: 57.3 µM
GI50 [6]: 20000 nM
TGI [6]: 44.8 µM
GI50 [7]: 21.5 µM
TGI [7]: 59.3 µM
GI50 [8]: 21900 nM
TGI [8]: 86.5 µM

COc1cc(NCCCCCN=C(N)NC(N)=NC(C)C)c2ncccc2c1
GI50 [1]: 34.1 µM
TGI [1]: > 100 µM
GI50 [2]: 4490 nM
TGI [2]: 18.1 µM
GI50 [3]: 0.0363 µM
TGI [3]: 0.633 µM
GI50 [4]: 6.09 µM
TGI [4]: 20.2 µM
GI50 [5]: 972 nM
TGI [5]: 13.8 µM
GI50 [6]: 10900 nM
TGI [6]: 23.5 µM
GI50 [7]: 0.302 µM
TGI [7]: 1.71 µM
GI50 [8]: 2690 nM
TGI [8]: 8.96 µM

COc1ccc2nc3cc(Cl)ccc3c(Nc3cc(CN4CCCC4)c(O)c(CN4CCCC4)c3)c2n1
GI50 [1]: 1.18 µM
TGI [1]: 10.6 µM
GI50 [2]: 638 nM
TGI [2]: 2.49 µM
GI50 [3]: 1.12 µM
TGI [3]: 4.72 µM
GI50 [4]: 2.66 µM
TGI [4]: 11.9 µM
GI50 [5]: 1530 nM
TGI [5]: 6.52 µM
GI50 [6]: 2920 nM
TGI [6]: 15.5 µM
GI50 [7]: 2.74 µM
TGI [7]: 9.55 µM
GI50 [8]: 1740 nM
TGI [8]: 3.56 µM

COc1ccc(-c2cc(=O)c3c(O)c(OC)c(OC)c(OC)c3o2)cc1
TGI [1]: > 100 µM
TGI [2]: > 100 µM
TGI [3]: > 100 µM
TGI [4]: > 100 µM
TGI [5]: > 100 µM
TGI [6]: > 100 µM
TGI [7]: > 100 µM
TGI [8]: > 100 µM

COc1cc2nccc(Oc3ccc(NC(=O)c4cn(C(C)C)c(=O)n(-c5ccc(F)cc5)c4=O)cc3F)c2cc1OC
GI50 [1]: > 100 µM
TGI [1]: > 100 µM
GI50 [2]: 4980 nM
TGI [2]: > 100 µM
GI50 [3]: > 20.8 µM
TGI [3]: > 100 µM
GI50 [4]: 5.6 µM
TGI [4]: > 100 µM
GI50 [5]: 6280 nM
TGI [5]: > 100 µM
GI50 [6]: > 100000 nM
TGI [6]: > 100 µM
GI50 [7]: 3.23 µM
TGI [7]: 34.4 µM
GI50 [8]: 6030 nM
TGI [8]: > 100 µM

COC(=O)[C@H](Cc1cn(C)cn1)NC(=O)[C@H](Cc1ccccc1)NC(=O)Nc1cc(C(F)(F)F)cc(C(F)(F)F)c1
GI50 [1]: 16.9 µM
TGI [1]: 42.4 µM
GI50 [2]: 14200 nM
TGI [2]: 29.7 µM
GI50 [3]: 13.8 µM
TGI [3]: 28.5 µM
GI50 [4]: 16.8 µM
TGI [4]: 32.5 µM
GI50 [5]: 9170 nM and 12400 nM
TGI [5]: 25.8 µM
GI50 [6]: 19200 nM
TGI [6]: 33.3 µM
GI50 [7]: 3.54 µM and 8.29 µM
TGI [7]: 27 µM

O=C(/C=C/C12c3ccccc3C(c3ccccc31)C1C(=O)NC(=O)C12)c1ccccc1 (centres undefined)
GI50 [1]: 1.64 µM
TGI [1]: 6.84 µM
GI50 [2]: 1680 nM
TGI [2]: 4.65 µM
GI50 [3]: 2.3 µM
TGI [3]: 12.1 µM
GI50 [4]: 2.01 µM
TGI [4]: 4.83 µM
GI50 [5]: 1620 nM
TGI [5]: 3.45 µM
GI50 [6]: 2370 nM
TGI [6]: 5.2 µM
GI50 [8]: 1770 nM
TGI [8]: 3.82 µM

O=c1/c(=N\Nc2ccccc2)c2cccc3ccc4cccc1c4c32
TGI [1]: > 100 µM
TGI [3]: > 100 µM
TGI [4]: > 100 µM
TGI [5]: > 100 µM
TGI [6]: > 100 µM
TGI [7]: > 100 µM
TGI [8]: > 100 µM

N#Cc1cccc(C2C3=C(COC3=O)N(CCO)c3cc4c(cc32)OCO4)c1 (centres undefined)
GI50 [1]: 0.971 µM
TGI [1]: > 50 µM
GI50 [2]: 1830 nM
TGI [2]: > 50 µM
GI50 [3]: 10.9 µM
TGI [3]: > 50 µM
GI50 [4]: 7.92 µM
TGI [4]: > 50 µM
GI50 [5]: 1620 nM
TGI [5]: > 50 µM
GI50 [6]: 2080 nM
TGI [6]: > 50 µM
GI50 [8]: 1660 nM
TGI [8]: > 50 µM

CN(C)CCCNc1nc2ccccc2c2[nH]c3ccccc3c12
GI50 [1]: 0.266 µM
TGI [1]: 4.31 µM
GI50 [2]: 737 nM
TGI [2]: 3.28 µM
GI50 [4]: 1.28 µM
TGI [4]: 9.36 µM
GI50 [5]: 897 nM
TGI [5]: 2.97 µM
GI50 [6]: 1490 nM
TGI [6]: 6.11 µM
GI50 [7]: 5.18 µM
TGI [7]: 16.5 µM
GI50 [8]: 4010 nM
TGI [8]: 11.9 µM

CN(N)c1nc(N)c(C#N)c(C#N)c1C#N
TGI [1]: > 10 µM
TGI [3]: > 10 µM
TGI [4]: > 10 µM
TGI [5]: > 10 µM
TGI [6]: > 10 µM
TGI [7]: > 10 µM
TGI [8]: > 10 µM

N#Cc1cc(S(=O)(=O)Nc2nc3ccccc3o2)c(SCc2ccccc2)cc1Cl
GI50 [1]: 24.6 µM
TGI [1]: 60.1 µM
GI50 [2]: 21500 nM
TGI [2]: 56.1 µM
GI50 [3]: 42.1 µM
TGI [3]: > 100 µM
GI50 [4]: 27 µM
TGI [4]: 52 µM
GI50 [5]: 21400 nM
TGI [5]: 43.4 µM
GI50 [7]: 23.7 µM
TGI [7]: 80.9 µM
GI50 [8]: 20300 nM
TGI [8]: 52.2 µM
